Biological target: T1, glucosylceramidase (GCase, GBA) in human fibroblast cell line GM10915 harboring the L444P GBA mutation (Homo sapiens, UniProt P04062, L483P)
T1 construct: Human fibroblast cell line GM10915 harboring the L444P GBA mutation; host or cells: GM10915 human fibroblasts
T1 sequence (P04062 40-536 L483P): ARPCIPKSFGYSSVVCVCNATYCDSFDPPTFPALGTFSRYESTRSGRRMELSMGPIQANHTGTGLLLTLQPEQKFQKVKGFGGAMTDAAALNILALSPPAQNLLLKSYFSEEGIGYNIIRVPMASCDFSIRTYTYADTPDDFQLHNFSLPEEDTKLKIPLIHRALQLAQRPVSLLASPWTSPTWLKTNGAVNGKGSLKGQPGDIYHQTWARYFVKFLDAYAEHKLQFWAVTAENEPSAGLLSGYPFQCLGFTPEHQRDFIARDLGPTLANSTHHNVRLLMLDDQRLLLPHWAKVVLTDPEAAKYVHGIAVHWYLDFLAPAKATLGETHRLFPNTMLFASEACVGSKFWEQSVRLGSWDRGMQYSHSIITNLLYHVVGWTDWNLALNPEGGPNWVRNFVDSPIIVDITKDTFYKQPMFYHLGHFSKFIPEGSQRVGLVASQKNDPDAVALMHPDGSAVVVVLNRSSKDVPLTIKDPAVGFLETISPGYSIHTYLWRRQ
Experiment: GCase activity assay (4-MUG substrate, normalised to crystal violet staining) in GM10915 fibroblasts
Assay type: cell-based
Conditions: five days exposure; for GBA EC1.5: concentration where Percent GCase activity = 150% (1.5-fold induction), 8-point dose range; for Emax / GBA Emax: maximum Percent GCase activity relative to untreated cells in the dose range tested
Experimental: Human fibroblast cell line GM10915 harboring the L444P GBA mutation was obtained from Coriell Biorepositories. All chemicals (Glacial acetic acid, Glycine, 4-Methylumbelliferyl b-D-glucopyranoside (4-MUG), Sodium acetate trihydrate, Sodium hydroxide, Crystal violet, SDS, Ammonium hydroxide) were obtained from Sigma-Aldrich (Denmark). Compounds tested for GCase activity were dissolved in H2O or DMSO.
The GM10915 cell line was cultured under standard cell culture conditions (37° C. and 5% CO2) in complete DMEM medium supplemented with nonessential amino acids (NEAA), 1% Pen-Strep and 12% FCS. Cells were seeded at a density of 10^4 cells/well in 100 μL complete medium in one black 96-well plate for glucosylceramidase (GCase) activity measurement and in one clear 96-well plate for crystal violet staining to correct for cell density. Crystal violet staining is performed to obtain quantitative information about the relative density of cells adhering to multi-wells plates.
The assay was adapted from Sawkar et al (2002) and briefly described in the following. The day after seeding of cells, the medium was replaced with fresh medium containing the compounds to be tested. Compounds were tested in duplicate and in an 8-point diluted dose range to obtain a dose response. Cells were exposed with compounds for five days. Fresh compound was added every 2-3 days. PBS was included to define the basal level of GCase activity.
Cells were washed three times with 200 μL PBS per well and 50 μL of 2.5 mM 4-MUG buffer (4-MUG dissolved in 0.2 M acetate buffer pH 4.0) was added and the cells were incubated at 37° C., 5% CO2 for 23 hours. The reaction was stopped by adding 150 μL 0.2 M glycine buffer (pH 10.8). Fluorescence was measured with a Varioskan® Flash reader (Thermo Scientific) at an excitation/emission setting of 365/445 nm.
Cells were treated with compounds in a parallel setup identical to the setup to test for GCase activity. At the end of compound treatment, cells were washed once with 200 μL PBS per well and 50 μL 0.1% w/v crystal violet (in H2O) was added. Following 10 min. of incubation, the crystal violet solution was removed, and the cells were washed three times with 200 μL PBS and 100 μL 1% SDS was added to solubilize the stain. The plate was agitated on an orbital shaker for 10-30 min. Absorbance (A) is measured at […] using a Varioskan® Flash reader (Thermo Scientific).
The fluorescence signal (F) derived from the GCase measurement is normalized to the absorbance signal (A) derived from the crystal violet staining. The percent GCase activity resulting from compound treatment is calculated relative to the basal activity obtained from untreated cells.
Maximal effect of compounds (Emax) is determined from the dose response effects as the maximum “Percent GCase activity” achieved in the dose range tested.

Molecule | GBA EC1.5 [µM] | Emax [%] | GBA EC1.5 (listed as 550) [µM] | GBA Emax (listed as 550) [%] | GBA Emax [%]
OC(CON=C(Cl)C1(c2ccccn2)CCNCC1)CN1CCCCC1 (stereo not drawn) [ID 534, N-(2-hydroxy-3-(piperidin-1-yl)propoxy)-4-(pyridin-2-yl)piperidine-4-carbimidoyl chloride tri-2,2,2-trifluoroacetate] | 19 | 226 | – | – | –
OC(CO/N=C(\Cl)C1(Cc2cccnc2)CCNCC1)CN1CCCCC1 (stereo not drawn) [ID 550] | – | – | 27 | 159 | –
OC(CON=C(Cl)CCN1CCCC1)CN1CCCCC1 (stereo not drawn) [ID 562, N-(2-hydroxy-3-(piperidin-1-yl)propoxy)-3-(pyrrolidin-1-yl)propanimidoyl chloride] | 3 | 239 | – | – | –
N-(2-hydroxy-3-(piperidin-1-yl)propoxy)-4-((6-methoxy-2-methylpyridin-3-yl)methyl)piperidine-4-carbimidoyl chloride tri-2,2,2-trifluoroacetate [ID 524] | 1 | – | – | – | 149
N-(2-hydroxy-3-(piperidin-1-yl)propoxy)-4-((6-methylpyridin-3-yl)methyl)piperidine-4-carbimidoyl chloride tri-2,2,2-trifluoroacetate [ID 493] | 18 | – | – | – | 279

Continued, in another order:

GBA EC1.5 [µM] | Emax [%] | GBA EC1.5 (listed as 550) [µM] | GBA Emax (listed as 550) [%] | Molecule | GBA Emax [%]
3 | 211 | – | – | OC(CON=C(Cl)CCN1CCCCC1)CN1CCCCC1 (stereo not drawn) [ID 563, N-(2-hydroxy-3-(piperidin-1-yl)propoxy)-3-(piperidin-1-yl)propanimidoyl chloride] | –
50 | 136 | – | – | OC(CO/N=C(\Cl)CCN1CCNCC1)CN1CCCCC1 (stereo not drawn) [ID 593] | –
48 | 136 | – | – | CN(CC/C(Cl)=N\OCC(O)CN1CCCCC1)C(=O)OC(C)(C)C (stereo not drawn) [ID 599, tert-butyl (3-chloro-3-((2-hydroxy-3-(piperidin-1-yl)propoxy)imino)propyl)(methyl)carbamate] | –
112 | 232 | – | – | CCCCCO[C@H]1CC[C@H](NC(=O)c2cnn3c(C)cc(C)nc23)CC1 [LTI-291, reference compound] | –

Reference: patent publication US20240383853A1, “OXIMES AND THEIR USE IN TREATMENT OF GBA-RELATED DISEASES” (ZEVRA DENMARK A/S, priority 2021, published 2024)
